Assays:
[1] = tested on: mTOR (Ser2448 and Ser2481), rpS6 (Ser235/236) and p70S6 kinase (Thr389); assay: IGF-I induced phosphorylation of AKT downstream targets in Rh1 cells, Western blot; type: cell-based, human; settings: 3.5 to 5.0 μM, 1 hour, Rh1 cells serum-free, IGF-I 10 minutes
Protocol: Cellular screening for inhibitors. Rh1, Rh18 and Rh30 cells can each be seeded at a density of 4×10^6/10-cm plate in serum-free medium for overnight attachment. The cells can then be exposed to 0.1% DMSO or to a test compound (for example, a phenoxazine or acridone compound) for one hour, then stimulated with Insulin-like growth factor-I (IGF-I) (10 ng/ml) for 10 minutes.
Western blot analysis. Cells are rapidly washed with ice-cold phosphate-buffered saline (PBS), placed on ice, and lysed in mammalian protein extraction reagent (M-PER; available from Pierce, Rockford, Ill.) containing one Complete™ mini protease inhibitor tablet (available from Boehringer Mannheim, Mannheim, Germany), 1 mM phenylmethylsulfonyl fluoride, 1 mM Na3VO4 and 1 mM NaF. Cellular debris is pelleted by centrifugation at 17,500×g for 10 minutes at 4° C. The protein concentration of the supernatants is measured by the bicinchoninic acid assay (e.g., using the BCA™ Protein Assay Kit, Pierce, Rockford, Ill., catalog number 23225 or 23227) using bovine serum albumin as the standard.
For the analysis of AKT, ERK-1/2, mTOR, p70S6 kinase, ribosomal protein S6 (rpS6 or S6), and glycogen synthase kinase 3 (GSK-3), equivalent amounts of protein can be separated on a 12% SDS-polyacrylamide gel (available from BioRad, Hercules, Calif.) by electrophoresis and subsequently transferred to a nitrocellulose membrane (also available from BioRad). […]

AKT = assay: Translocation of AKT from cytoplasm to nucleus in Rh1 cells, confocal microscopy; type: cell-based, human; settings: 5 μM, 1 hour, IGF-1 10 ng/ml 20 minutes
Protocol: Translocation of AKT in Rh1 cells. Rh1 cells (2×10^5 per chamber) can be grown on 2-well glass chamber slides (available from Falcon, Franklin Lakes, N.J.) in serum-free medium containing fibronectin (10 μg/ml). Preferably after twenty hours, the cells are exposed to DMSO (0.1%, vehicle control) or test compound (e.g., 5 μM of phenoxazine or acridone compound) for one hour and then stimulated with IGF-I (10 ng/ml) for 20 minutes. Cells are preferably washed twice with PBS and fixed in 4% formaldehyde for 30 minutes at room temperature. The samples are then rinsed twice with PBS and permeabilized with 1% Triton X-100 for five minutes at room temperature. After rinsing twice with PBS, the cells are incubated with an anti-AKT antibody (available from Rockland, West Chester, Pa.) (1:50 dilution) for 45 minutes at 37° C. […] After rinsing twice with PBS, the slides can be mounted in media containing TOPRO-3 (also available from Molecular Probes) and analyzed by routine confocal microscopy.
Upon activation, AKT translocates to the nucleus (see, e.g., Biggs et al. Proc. Natl. Acad. Sci. USA 1999;96:7421-7426; Brownawell et al. Mol. Cell. Biol. 2001;21:3534-3546; Brunet et al. Cell 1999;96:857-868; and Rena et al. J. Biol. Chem. 1999;274:17179-17183). […] Cellular localization of AKT may then be assessed, e.g. by confocal microscopy.

Rh30 cells = assay: Determination of apoptosis (Annexin V-FITC/propidium iodide flow cytometry), Rh30 cells; settings: Rh30, 7.5 μM, four days, n = 3
Protocol: Determination of apoptosis. An ApoAlert™ Annexin V-FITC Apoptosis kit (available from Clontech, Palo Alto, Calif.) can be used to evaluate the extent of apoptosis within cell populations. Cells (Rh1: 350,000 per 75-cm^2 flask; Rh18: 800,000 per 75-cm^2 flask; or Rh30: 500,000 per 75-cm^2 flask) are preferably grown overnight in complete medium. On day 1, cells are treated with DMSO (0.1%; vehicle control) or with a test compound (e.g., a phenoxazine or acridone compound). After 4 days, the cells are trypsinized, washed with PBS, and resuspended in 200 μl of binding buffer. Cells are then incubated with 10 μl of annexin V-FITC (final concentration, 1 μg/ml) and 500 ng of propidium iodide in a final volume of 410 μl. Cells are preferably incubated at room temperature in the dark for ten minutes before flow cytometric analysis with an FACSCalibur™ Flow Cytometry System (Becton Dickinson, San Jose, Calif.).
For instance, Rh1, Rh18 and/or Rh30 cells can be grown in complete medium with 0.1% DMSO (as a negative control) or with one or more test compounds, e.g., any of the phenoxazine compounds listed in Table I, above, including but not limited to the compounds 10B, 11B, 13B, 14B or 15B. […] Cells are then harvested, and the extent of apoptosis evaluated, e.g., by an ApoAlert™ (Clontech, Palo Alto, Calif.) flow cytometric assay.

Row | Compound | inhibition of IGF-I induced phosphorylation of mTOR, rpS6 and p70S6 kinase [1] | nuclear localization of AKT (AKT) | Percentage of cells ± SD, Apoptotic (Rh30 cells) [%] | Percentage of cells ± SD, Viable (Rh30 cells) [%]
1 | 10-[4′-[(β-hydroxyethyl)piperazino]butyl]-2-chlorophenoxazine [Compound 15B] | markedly inhibited | block in nuclear localization occurs | 88.67 ± 1.69 | 
2 | CCN(CC)CCCCN1c2ccccc2Oc2ccc(Cl)cc21 [Compound 10B, 10-[4′-(N-diethylamino)butyl]-2-chlorophenoxazine] | markedly inhibited | block in nuclear localization occurs | 43.00 ± 2.17 | 56.67 ± 2.62
